For experiment [1], the target named is T1, ITPKA (Ins(1,4,5)P3-kinase-A) (Homo sapiens, UniProt P23677).
T1 construct: expressed in bacteria as GFP-His-fusion protein, tags cleaved with TEV protease
In words: coupled optical InsP3-kinase assay (pyruvate kinase/lactate dehydrogenase, NADH) with […] recombinant ITPKA. The class given is biochemical.

Experiment [2] deals with F-actin (filamentous actin) (chicken) (UniProt P68139). As to the kind of experiment: co-sedimentation; F-actin bundling assay: G-actin in F-actin buffer (20 mM Tris-HCl pH 7.5, 100 mM KCl, 2 mM MgCl2, 1 mM EGTA, 1 mM DTT, 0.5 mM ATP) with or without ITPKA proteins, 20 min at RT, 10,000 g for 20 min at 4°C; about 1 µM F-actin, 0.5 µM ITPKA, 10-fold excess of ITPKA^L34P; supernatant and pellet on Coomassie-stained SDS-PAGE.

This is an account of results in paper PMC9912108, “The actin bundling activity of ITPKA mainly accounts for its migration-promoting effect in lung cancer cells” (Bioscience Reports, 2023).

T1 sequence (P23677 whole entry, the tested form may be a part): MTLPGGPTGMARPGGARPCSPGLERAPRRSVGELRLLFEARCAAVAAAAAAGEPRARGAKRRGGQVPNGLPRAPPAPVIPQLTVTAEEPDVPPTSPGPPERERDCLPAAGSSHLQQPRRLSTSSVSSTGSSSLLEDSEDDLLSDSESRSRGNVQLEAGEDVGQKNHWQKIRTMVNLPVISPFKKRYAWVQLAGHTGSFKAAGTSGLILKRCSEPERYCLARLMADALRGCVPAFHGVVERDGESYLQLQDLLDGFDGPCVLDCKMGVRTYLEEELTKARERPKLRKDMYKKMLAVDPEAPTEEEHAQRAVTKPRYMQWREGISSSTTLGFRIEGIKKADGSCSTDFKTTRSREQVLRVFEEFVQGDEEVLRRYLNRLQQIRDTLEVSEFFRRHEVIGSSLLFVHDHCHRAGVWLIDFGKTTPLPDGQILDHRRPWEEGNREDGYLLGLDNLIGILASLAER
Ins(1,4,5)P3-kinase-A (ITPKA), wild type, sequence (P23677 whole entry): as the sequence (P23677 whole entry, the tested form may be a part) above

As usually defined, the IC50 is the concentration needed to halve the response being measured. For the compound `C[C@@H]1CN(Cc2cn[nH]c2-c2ccc(C#N)cc2)CCN1c1ccc(C(F)(F)F)cn1` [GNF362], the IC50 in experiment [1] is 17 nM. Take “Ins(1,4,5)P3-kinase-A (ITPKA), wild type (from UniProt P23677 1-461) (enzyme)”: the percent of F-actin bundled in experiment [2] amounted to 60%.
